Measurements: patent publication US11186566B2, “Modulator of cystic fibrosis transmembrane conductance regulator, pharmaceutical compositions, methods of treatment, and process for making the modulator” (Vertex Pharmaceuticals Incorporated, priority 2016, dated 2021)

Each compound was assayed against F508del-CFTR (Homo sapiens (Human), UniProt P13569, DEL508-508) (assay: Membrane potential optical (fluorescent voltage sensing dye, FLIPR III) HTS assay for F508del-CFTR modulators). Settings: F508del NIH 3T3 cells, assay 5A-A1; read-out: CFTRdF508 EC50.
Chain of F508del-CFTR (P13569 other isoform, or with tags, fused parts or gaps del F508-F508): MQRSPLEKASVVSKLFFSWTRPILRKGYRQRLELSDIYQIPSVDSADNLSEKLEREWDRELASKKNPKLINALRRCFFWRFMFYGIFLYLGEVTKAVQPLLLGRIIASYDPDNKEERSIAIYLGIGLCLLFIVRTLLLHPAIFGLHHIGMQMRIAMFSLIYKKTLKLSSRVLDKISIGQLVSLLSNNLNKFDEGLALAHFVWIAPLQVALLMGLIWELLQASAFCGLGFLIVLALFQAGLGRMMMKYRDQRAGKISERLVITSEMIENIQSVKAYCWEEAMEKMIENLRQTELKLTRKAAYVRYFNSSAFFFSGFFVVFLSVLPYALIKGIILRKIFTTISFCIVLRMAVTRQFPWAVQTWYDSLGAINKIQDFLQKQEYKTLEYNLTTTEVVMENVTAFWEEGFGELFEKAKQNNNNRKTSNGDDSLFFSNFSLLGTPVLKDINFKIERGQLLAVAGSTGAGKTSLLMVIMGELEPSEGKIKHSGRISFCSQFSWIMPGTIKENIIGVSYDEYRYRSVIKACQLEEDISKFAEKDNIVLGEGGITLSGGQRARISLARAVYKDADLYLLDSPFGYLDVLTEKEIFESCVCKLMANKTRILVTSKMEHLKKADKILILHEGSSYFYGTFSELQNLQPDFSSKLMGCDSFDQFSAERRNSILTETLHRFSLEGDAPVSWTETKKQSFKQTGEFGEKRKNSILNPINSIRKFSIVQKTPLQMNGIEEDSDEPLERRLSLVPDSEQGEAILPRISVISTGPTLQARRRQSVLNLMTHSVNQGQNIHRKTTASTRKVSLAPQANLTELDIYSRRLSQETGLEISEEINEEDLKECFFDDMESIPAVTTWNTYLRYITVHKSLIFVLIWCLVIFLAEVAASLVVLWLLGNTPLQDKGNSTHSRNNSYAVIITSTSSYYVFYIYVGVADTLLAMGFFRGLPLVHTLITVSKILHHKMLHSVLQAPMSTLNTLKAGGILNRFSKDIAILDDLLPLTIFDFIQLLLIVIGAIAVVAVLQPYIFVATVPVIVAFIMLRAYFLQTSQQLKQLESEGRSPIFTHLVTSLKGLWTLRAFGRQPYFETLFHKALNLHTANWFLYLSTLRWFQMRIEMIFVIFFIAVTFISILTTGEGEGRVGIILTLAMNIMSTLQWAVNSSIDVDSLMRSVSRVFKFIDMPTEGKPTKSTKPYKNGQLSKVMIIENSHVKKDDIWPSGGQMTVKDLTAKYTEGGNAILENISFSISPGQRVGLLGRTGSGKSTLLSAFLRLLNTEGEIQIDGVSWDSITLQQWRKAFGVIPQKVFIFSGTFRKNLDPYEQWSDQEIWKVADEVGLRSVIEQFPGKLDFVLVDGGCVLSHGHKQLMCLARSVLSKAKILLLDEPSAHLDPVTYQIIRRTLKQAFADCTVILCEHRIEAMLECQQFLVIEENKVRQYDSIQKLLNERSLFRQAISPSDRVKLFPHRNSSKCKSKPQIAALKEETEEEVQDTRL
Type: cell-based
Source text: Membrane Potential Optical Methods for Assaying Properties of F508del-CFTR Modulators
The assay utilizes fluorescent voltage sensing dyes to measure changes in membrane potential using a fluorescent plate reader (e.g., FLIPR III, Molecular Devices, Inc.) as a readout for increase in functional F508del in NIH 3T3 cells.
5A-A1. Identification of F508Del-CFTR Modulators
To identify modulators of F508del, a fluorescence based HTS assay format was developed. This HTS assay utilizes fluorescent voltage sensing dyes to measure changes in membrane potential on the FLIPR III as a measurement for increase in gating (conductance) of F508del NIH 3T3 cells.
(in mM) NaCl 160, KCl 4.5, CaCl2 2, MgCl2 1, HEPES 10, pH 7.4 with NaOH, Glucose 10.
Chloride salts in Bath Solution #1 (above) are substituted with gluconate salts.
NIH3T3 mouse fibroblasts stably expressing F508del are used for optical measurements of membrane potential. The cells are maintained at 37° C. in 5% CO2 and 90% humidity in Dulbecco's modified Eagle's medium supplemented with 2 mM glutamine, 10% fetal bovine serum, 1×NEAA, β-ME, 1×pen/strep, and 25 mM HEPES in 175 cm^2 culture flasks. For all optical assays, the cells were seeded at 12,000 cells/well in 384-well matrigel-coated plates and cultured for 18-24 hrs at 37° C. for the potentiator assay. For the correction assays, the cells are cultured at 37° C. with and without compounds for 18-24 hours.

For C[C@@H]1CN(c2nc(-n3ccc(OCC4CC45CC5)n3)ccc2C(=O)NS(=O)(=O)c2ccccc2)C(C)(C)C1 (stereo partly drawn) [Compound 60, N-(Benzenesulfonyl)-6-[3-(spiro[2.2]pentan-2-ylmethoxy)pyrazol-1-yl]-2-[(4S)-2,2,4-trimethylpyrrolidin-1-yl]pyridine-3-carboxamide], which EC50 is on record?
The EC50 was 100 to 1000 nM.

For C[C@@H]1CN(c2nc(-n3ccc(OCC4(C(F)(F)F)CC4)n3)ccc2C(=O)NS(=O)(=O)c2cccc(O)c2)C(C)(C)C1 [Compound 21, N-(3-Hydroxyphenyl)sulfonyl-6-[3-[[1-(trifluoromethyl)cyclopropyl]methoxy]pyrazol-1-yl]-2-[(4S)-2,2,4-trimethylpyrrolidin-1-yl]pyridine-3-carboxamide], which EC50 is on record?
Its EC50 is < 100 nM.

For C[C@@H]1CN(c2nc(-n3ccc(OCCC4(C(F)(F)F)CC4)n3)ccc2C(=O)NS(=O)(=O)c2ccccc2O)C(C)(C)C1 [Compound 34, N-(2-hydroxyphenyl)sulfonyl-6-[3-[2-[1-(trifluoromethyl)cyclopropyl]ethoxy]pyrazol-1-yl]-2-[(4S)-2,2,4-trimethylpyrrolidin-1-yl]pyridine-3-carboxamide], which EC50 is on record?
The EC50 was < 100 nM.

For Cc1cc(C#N)ccc1S(=O)(=O)NC(=O)c1ccc(-n2ccc(OCC3(C(F)(F)F)CC3)n2)nc1N1C[C@@H](C)CC1(C)C [Compound 11, N-(4-Cyano-2-methyl-phenyl)sulfonyl-6-[3-[[1-(trifluoromethyl)cyclopropyl]methoxy]pyrazol-1-yl]-2-[(4S)-2,2,4-trimethylpyrrolidin-1-yl]pyridine-3-carboxamide], which EC50 is on record?
Its EC50 is 100 to 1000 nM.

C[C@@H]1CN(c2nc(-n3ccc(OCC4(C(F)(F)F)CC4)n3)ccc2C(=O)NS(=O)(=O)c2cccc(C#N)c2)C(C)(C)C1 [Compound 25, N-(3-Cyanophenyl)sulfonyl-6-[3-[[1-(trifluoromethyl)cyclopropyl]methoxy]pyrazol-1-yl]-2-[(4S)-2,2,4-trimethylpyrrolidin-1-yl]pyridine-3-carboxamide] was tested. Which EC50 did it give?
The EC50 was < 100 nM.

How did the EC50 turn out when [2H]C([2H])([2H])[C@@H]1CN(c2nc(-n3ccc(OCCC4(C(F)(F)F)CC4)n3)ccc2C(=O)NS(=O)(=O)c2ccccc2)C(C)(C)C1([2H])[2H] [Compound 17, N-(Benzenesulfonyl)-2-[(4S)-3,3-dideuterio-2,2-dimethyl-4-(trideuteriomethyl)pyrrolidin-1-yl]-6-[3-[2-[1-(trifluoromethyl)cyclopropyl]ethoxy]pyrazol-1-yl]pyridine-3-carboxamide] was run?
The EC50 was < 100 nM.

How did the EC50 turn out when CC1(C)CC(CO)CN1c1nc(-n2ccc(OCCC3(C(F)(F)F)CC3)n2)ccc1C(=O)NS(=O)(=O)c1ccccc1 (stereo not shown) [Compound 9, N-(Benzenesulfonyl)-2-[4-(hydroxymethyl)-2,2-dimethyl-pyrrolidin-1-yl]-6-[3-[2-[1-(trifluoromethyl)cyclopropyl]ethoxy]pyrazol-1-yl]pyridine-3-carboxamide] was run?
Its EC50 is 100 to 1000 nM.

How did the EC50 turn out when C[C@@H]1CN(c2nc(-n3ccc(OCC4(C(F)(F)F)CC4)n3)ccc2C(=O)NS(=N)(=O)c2ccccc2)C(C)(C)C1 (single isomer, unassigned) [Compound 46] was run?
Its EC50 is < 100 nM.

How did the EC50 turn out when [2H]C([2H])(Oc1ccn(-c2ccc(C(=O)NS(=O)(=O)c3ccccc3)c(N3C[C@@H](C)CC3(C)C)n2)n1)C1C(C)(C)C1(C)C [Compound 36, N-(Benzenesulfonyl)-6-[3-[dideuterio-(2,2,3,3-tetramethylcyclopropyl)methoxy]pyrazol-1-yl]-2-[(4S)-2,2,4-trimethylpyrrolidin-1-yl]pyridine-3-carboxamide] was run?
Its EC50 is < 100 nM.

Which EC50 does the source give for C[C@@H]1CN(c2nc(-n3ccc(OCC4(C(F)(F)F)CC4)n3)ccc2C(=O)NS(=O)(=O)c2ccccc2C#N)C(C)(C)C1 [Compound 26, N-(2-Cyanophenyl)sulfonyl-6-[3-[[1-(trifluoromethyl)cyclopropyl]methoxy]pyrazol-1-yl]-2-[(4S)-2,2,4-trimethylpyrrolidin-1-yl]pyridine-3-carboxamide] here?
The EC50 was > 1000 nM.

With C[C@@H]1CN(c2nc(-n3ccc(OCC(O)C4(C(F)(F)F)CC4)n3)ccc2C(=O)NS(=O)(=O)c2ccccc2)C(C)(C)C1 (stereo partly drawn) [Compound 38, N-(Benzenesulfonyl)-6-[3-[2-hydroxy-2-[1-(trifluoromethyl)cyclopropyl]ethoxy]pyrazol-1-yl]-2-[(4S)-2,2,4-trimethylpyrrolidin-1-yl]pyridine-3-carboxamide] as the compound, how does the EC50 read?
Its EC50 is 100 to 1000 nM.

With C[C@H]1CC(C)(C)N2c3nc(-n4ccc(OCCC5(C(F)(F)F)CC5)n4)ccc3C(=O)OC12 (stereo partly drawn) [Compound 62, (5S)-3,3,5-trimethyl-12-(3-(2-[1-(trifluoromethyl)cyclopropyl]ethoxy)-1H-pyrazol-1-yl)-7-oxa-2,13-diazatricyclo[7.4.0.02,6]trideca-1(13),9,11-trien-8-one] as the compound, how does the EC50 read?
The EC50 was > 1000 nM.

C[C@@H]1CN(c2nc(-n3ccc(OCCC4(C(F)(F)F)CC4)n3)ccc2C(=O)NS(=O)(=O)c2cccc(O)c2)C(C)(C)C1 [Compound 35, N-(3-Hydroxyphenyl)sulfonyl-6-[3-[2-[1-(trifluoromethyl)cyclopropyl]ethoxy]pyrazol-1-yl]-2-[(4S)-2,2,4-trimethylpyrrolidin-1-yl]pyridine-3-carboxamide] was tested. Which EC50 did it give?
The EC50 was < 100 nM.

How did the EC50 turn out when C[C@@H]1CN(c2nc(-n3ccc(OCC4(C(F)(F)F)CC4)n3)ccc2C(=O)NS(=O)(=O)c2ccc(F)cc2)C(C)(C)C1 [Compound 52, N-(4-fluorophenyl)sulfonyl-6-[3-[[1-(trifluoromethyl)cyclopropyl]methoxy]pyrazol-1-yl]-2-[(4S)-2,2,4-trimethylpyrrolidin-1-yl]pyridine-3-carboxamide] was run?
The EC50 was < 100 nM.

With C[C@H]1CN(c2nc(-n3ccc(OCCC4(C(F)(F)F)CC4)n3)ccc2C(=O)NS(=O)(=O)c2ccccc2)C(C)(C)C1 [Compound 2, (R)—N-(Phenylsulfonyl)-6-(3-(2-(1-(trifluoromethyl)cyclopropyl)ethoxy)-1H-pyrazol-1-yl)-2-(2,2,4-trimethylpyrrolidin-1-yl)nicotinamide] as the compound, how does the EC50 read?
Its EC50 is 100 to 1000 nM.

For C[C@@H]1CN(c2nc(-n3ccc(OC4CC4)n3)ccc2C(=O)NS(=O)(=O)c2ccccc2)C(C)(C)C1 [Compound 48, N-(Benzenesulfonyl)-6-[3-(cyclopropoxy)pyrazol-1-yl]-2-[(4S)-2,2,4-trimethylpyrrolidin-1-yl]pyridine-3-carboxamide], which EC50 is on record?
Its EC50 is > 1000 nM.

Which EC50 does the source give for COc1ccc(S(=O)(=O)NC(=O)c2ccc(-n3ccc(OCC4(C(F)(F)F)CC4)n3)nc2N2C[C@@H](C)CC2(C)C)cc1 [Compound 54, N-(4-methoxyphenyl)sulfonyl-6-[3-[[l-(trifluoromethyl)cyclopropyl]methoxy]pyrazol-1-yl]-2-[(4S)-2,2,4-trimethylpyrrolidin-1-yl]pyridine-3-carboxamide] here?
The EC50 was < 100 nM.

For COc1cc(S(=O)(=O)NC(=O)c2ccc(-n3ccc(OCCC4(C(F)(F)F)CC4)n3)nc2N2C[C@@H](C)CC2(C)C)ccc1O [Compound 3, (S)—N-((4-Hydroxy-3-methoxyphenyl)sulfonyl)-6-(3-(2-(1-(trifluoromethyl)cyclopropyl)ethoxy)-1H-pyrazol-1-yl)-2-(2,2,4-trimethylpyrrolidin-1-yl)nicotinamide], which EC50 is on record?
Its EC50 is < 100 nM.

How did the EC50 turn out when C[C@@H]1CN(c2nc(-n3ccc(O[C@@H]4C[C@@H]4C(F)(F)F)n3)ccc2C(=O)NS(=O)(=O)c2ccccc2)C(C)(C)C1 (racemic) [Compound 18, N-(Benzenesulfonyl)-6-[3-[(cis)-2-(trifluoromethyl)cyclopropoxy]pyrazol-1-yl]-2-[(4S)-2,2,4-trimethylpyrrolidin-1-yl]pyridine-3-carboxamide] was run?
The EC50 was 100 to 1000 nM.

Same assay, conditions: Table 7, Compound 1 and metabolites; read-out: CFTRdF508 EC50

With C[C@@H]1CN(c2nc(-n3ccc(OCCC4(C(F)(F)F)CC4)n3)ccc2C(=O)NS(=O)(=O)c2ccccc2O)C(C)(C)C1 [Compound 34, N-(2-hydroxyphenyl)sulfonyl-6-[3-[2-[1-(trifluoromethyl)cyclopropyl]ethoxy]pyrazol-1-yl]-2-[(4S)-2,2,4-trimethylpyrrolidin-1-yl]pyridine-3-carboxamide] as the compound, how does the EC50 read?
Its EC50 is 90 nM.

C[C@@H]1CN(c2nc(-n3ccc(OCC(O)C4(C(F)(F)F)CC4)n3)ccc2C(=O)NS(=O)(=O)c2ccccc2)C(C)(C)C1 (stereo partly drawn) [Compound 38, N-(Benzenesulfonyl)-6-[3-[2-hydroxy-2-[1-(trifluoromethyl)cyclopropyl]ethoxy]pyrazol-1-yl]-2-[(4S)-2,2,4-trimethylpyrrolidin-1-yl]pyridine-3-carboxamide] was tested. Which EC50 did it give?
Its EC50 is 240 nM.

For C[C@H]1CC(C)(C)N2c3nc(-n4ccc(OCCC5(C(F)(F)F)CC5)n4)ccc3C(=O)OC12 (stereo partly drawn) [Compound 62, (5S)-3,3,5-trimethyl-12-(3-(2-[1-(trifluoromethyl)cyclopropyl]ethoxy)-1H-pyrazol-1-yl)-7-oxa-2,13-diazatricyclo[7.4.0.02,6]trideca-1(13),9,11-trien-8-one], which EC50 is on record?
Its EC50 is > 30000 nM.
